What all share (assay type): cell-based
For experiment [1], the target named is T1, PfCRT^Ecu1110 (Plasmodium falciparum, UniProt Q9N623, A220S/I356L/K76T/N326D). Nature of the experiment: cell-based. The settings on record: for PfCRT-mediated [3H]CQ transport, trans-stimulation (% PfCRTEcu1110 control): PfCRTEcu1110 oocytes, normalised to oocyte type control; for [3H]CQ transport (% PfCRTDd2 control), trans-stimulation, PfCRTEcu1110: PfCRT-mediated component (background subtracted), sheet title says normalised to PfCRTDd2 control, mean ± SEM, SEM. The gist of the method:
(§1)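 Oocytes (ten per treatment, ≥4 independent frogs/days) were preloaded by injecting VF-6 in 25 nL ND96 at pH 5.0, 5.5, 6.0 or 7.0, or Na^+-free choline buffer, then uptake run 1.5 h, 27.5 °C, ND96 pH 5.5 by default. Internal concentrations assumed ~400 nL oocyte volume.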

In experiment [2] the target is T2, PfCRT^Dd2 (Plasmodium falciparum, UniProt Q9N623, A220S/I356T/K76T/M74I/N326S/N75E/Q271E/R371I). Nature of the experiment: cell-based. The note with it: for PfCRT-mediated [3H]CQ transport, trans-stimulation (% PfCRTDd2 control): PfCRTDd2 oocytes, normalised to oocyte type control; for [3H]CQ transport (% PfCRTDd2 control), trans-stimulation, PfCRTDd2: PfCRT-mediated component (background subtracted), mean ± SEM, SEM. In outline:
as §1

In a further experiment the target is PfCRT^3D7 (Plasmodium falciparum, UniProt Q8IBZ9). Nature of the experiment: cell-based. The note with it: PfCRT3D7 oocytes, normalised to oocyte type control. In outline:
as §1

The target in experiment [3] is T1, PfCRT^Ecu1110. Nature of the experiment: [3H]CQ uptake into Xenopus oocytes, cis-inhibition by unlabelled solute. The note with it: for PfCRT-mediated [3H]CQ transport, cis-inhibition (% PfCRTEcu1110 control): PfCRTEcu1110 oocytes, background [3H]CQ accumulation subtracted, normalised to oocyte type control; for [3H]CQ transport (% PfCRTEcu1110 control), cis-inhibition, PfCRTEcu1110: PfCRT-mediated component (background subtracted), sheet title says normalised to PfCRTDd2 control, mean ± SEM, SEM. The gist of the method:
(§2)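 Transport runs from the acidic bath into the cytosol, analogous to PfCRT-mediated efflux out of the vacuole. Non-expressing oocytes act as background.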

Experiment [4] has as its target T2, PfCRT^Dd2. Described as above. The settings on record: PfCRTDd2 oocytes, background [3H]CQ accumulation subtracted, normalised to oocyte type control. In outline: as §2
Where [5] appears, read: [test solute]i = 5 mM (intracellular).
[6] abbreviates: [test solute]i = 45 mM (intracellular; 30 mM for some solutes due to solubility).
Setting [7] is: [test solute]i = 5 mM (injected).
Where [8] appears, read: [test solute]i = 45 mM (30 mM for some solutes due to solubility).

PfCRT^3D7, sequence (Q8IBZ9 59-398): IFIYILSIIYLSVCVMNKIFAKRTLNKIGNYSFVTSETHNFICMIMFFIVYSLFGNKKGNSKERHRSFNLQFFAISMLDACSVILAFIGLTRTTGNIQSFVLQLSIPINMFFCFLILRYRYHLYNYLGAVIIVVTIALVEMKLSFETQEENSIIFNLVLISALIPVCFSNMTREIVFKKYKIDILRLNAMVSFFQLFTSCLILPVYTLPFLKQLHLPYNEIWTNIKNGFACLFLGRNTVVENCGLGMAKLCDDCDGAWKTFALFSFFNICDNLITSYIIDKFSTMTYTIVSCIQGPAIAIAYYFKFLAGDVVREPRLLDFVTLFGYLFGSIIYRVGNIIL
T2 sequence (Q9N623 whole entry A220S/I356T/K76T/M74I/N326S/N75E/Q271E/R371I): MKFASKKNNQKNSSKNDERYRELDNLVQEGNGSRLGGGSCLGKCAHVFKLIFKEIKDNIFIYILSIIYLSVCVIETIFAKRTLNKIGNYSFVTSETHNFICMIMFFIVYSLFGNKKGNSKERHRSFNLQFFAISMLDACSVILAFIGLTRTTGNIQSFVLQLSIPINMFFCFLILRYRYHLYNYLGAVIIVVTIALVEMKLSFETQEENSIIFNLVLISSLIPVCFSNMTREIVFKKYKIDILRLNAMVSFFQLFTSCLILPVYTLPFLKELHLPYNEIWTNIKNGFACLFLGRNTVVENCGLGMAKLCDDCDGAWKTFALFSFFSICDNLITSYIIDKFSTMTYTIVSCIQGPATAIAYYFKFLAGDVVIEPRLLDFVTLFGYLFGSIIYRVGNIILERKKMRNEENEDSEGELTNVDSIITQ
T1 sequence (Q9N623 whole entry A220S/I356L/K76T/N326D): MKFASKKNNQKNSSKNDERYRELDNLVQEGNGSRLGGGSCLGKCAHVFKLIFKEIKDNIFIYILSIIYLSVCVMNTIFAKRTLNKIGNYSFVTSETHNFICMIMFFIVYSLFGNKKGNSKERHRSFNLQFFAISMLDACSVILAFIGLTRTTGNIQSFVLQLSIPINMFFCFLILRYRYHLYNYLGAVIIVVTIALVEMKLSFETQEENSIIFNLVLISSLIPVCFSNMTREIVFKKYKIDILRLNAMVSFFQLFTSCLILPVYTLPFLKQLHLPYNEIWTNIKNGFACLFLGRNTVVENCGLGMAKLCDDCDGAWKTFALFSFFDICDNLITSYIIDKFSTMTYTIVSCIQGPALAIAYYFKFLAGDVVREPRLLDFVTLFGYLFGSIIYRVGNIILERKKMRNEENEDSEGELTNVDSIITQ

For “PNALS [PS-5, host-derived peptide upstream of PL-4]”, the “PfCRT-mediated [3H]CQ transport, trans-stimulation (% PfCRTEcu1110 control)” value on PfCRT^Ecu1110 [1] (setting [5]) turned out to be 127 ± 2.6 % PfCRTEcu1110 control; on PfCRT^Ecu1110 [1] (setting [6]) it was 136 ± 4.6 % PfCRTEcu1110 control. In addition, the “[3H]CQ transport (% PfCRTDd2 control), trans-stimulation, PfCRTEcu1110” value on PfCRT^Ecu1110 [1] (setting [7]) was 38 ± 1.5 % PfCRTEcu1110 control; on PfCRT^Ecu1110 [1] (setting [8]) it was 41 ± 2.2 % PfCRTEcu1110 control. The “PfCRT-mediated [3H]CQ transport, trans-stimulation (% PfCRTDd2 control)” value on PfCRT^Dd2 [2] (setting [5]) was found to be 99 ± 4.6 % PfCRTDd2 control; on PfCRT^Dd2 [2] (setting [6]), 96 ± 4.1 % PfCRTDd2 control. In addition, the entries for the “[3H]CQ transport (% PfCRTDd2 control), trans-stimulation, PfCRTDd2” value on PfCRT^Dd2 [2] (setting [7]) and at PfCRT^Dd2 [2] (setting [8]) were 99 ± 4.6 % PfCRTDd2 control and 96 ± 4.1 % PfCRTDd2 control, respectively. The “PfCRT-mediated [3H]CQ transport, trans-stimulation (% PfCRT3D7 control)” value on PfCRT^3D7 (setting [5]) is listed as 131 ± 6.2 % PfCRT3D7 control; at PfCRT^3D7 (setting [6]), 180 ± 3.6 % PfCRT3D7 control. The “PfCRT-mediated [3H]CQ transport, cis-inhibition (% PfCRTEcu1110 control)” value at PfCRT^Ecu1110 [3] ([test solute] = 0.5 mM) worked out at 50 ± 2.5 % PfCRTEcu1110 control; at PfCRT^Ecu1110 [3] ([test solute] = 1 mM), 42 ± 1.8 % PfCRTEcu1110 control; on PfCRT^Ecu1110 [3] ([test solute] = 2 mM), 29 ± 1.1 % PfCRTEcu1110 control. The entries for the “[3H]CQ transport (% PfCRTEcu1110 control), cis-inhibition, PfCRTEcu1110” value at PfCRT^Ecu1110 [3] ([test solute] = 1 mM) and at PfCRT^Ecu1110 [3] ([test solute] = 2 mM) were 13 ± 0.1 % PfCRTEcu1110 control and 9.0 ± 0.01 % PfCRTEcu1110 control, respectively. Further, the “PfCRT-mediated [3H]CQ transport, cis-inhibition (% PfCRTDd2 control)” value at PfCRT^Dd2 [4] ([test solute] = 1 mM) was 30 ± 2.7 % PfCRTDd2 control; on PfCRT^Dd2 [4] ([test solute] = 2 mM) it was 19 ± 0.3 % PfCRTDd2 control.
For PPVQA [PA-5], the “PfCRT-mediated [3H]CQ transport, trans-stimulation (% PfCRTEcu1110 control)” value at PfCRT^Ecu1110 [1] (setting [5]) came out at 91 ± 5.7 % PfCRTEcu1110 control; at PfCRT^Ecu1110 [1] (setting [6]) it was 97 ± 4.4 % PfCRTEcu1110 control. The “[3H]CQ transport (% PfCRTDd2 control), trans-stimulation, PfCRTEcu1110” value came out at 28 ± 1.7 % PfCRTEcu1110 control on PfCRT^Ecu1110 [1] (setting [7]) and 29 ± 1.4 % PfCRTEcu1110 control on PfCRT^Ecu1110 [1] (setting [8]). The “PfCRT-mediated [3H]CQ transport, trans-stimulation (% PfCRTDd2 control)” value on PfCRT^Dd2 [2] (setting [5]) worked out at 100 ± 4.2 % PfCRTDd2 control; at PfCRT^Dd2 [2] (setting [6]), 95 ± 5.6 % PfCRTDd2 control. Besides, the figures for the “[3H]CQ transport (% PfCRTDd2 control), trans-stimulation, PfCRTDd2” value on PfCRT^Dd2 [2] (setting [7]) and on PfCRT^Dd2 [2] (setting [8]) were 100 ± 4.2 % PfCRTDd2 control and 95 ± 5.6 % PfCRTDd2 control, respectively. Also, the entries for the “PfCRT-mediated [3H]CQ transport, trans-stimulation (% PfCRT3D7 control)” value on PfCRT^3D7 (setting [5]) and at PfCRT^3D7 (setting [6]) were 133 ± 4.6 % PfCRT3D7 control and 178 ± 5.2 % PfCRT3D7 control, respectively. For the same substance, the “PfCRT-mediated [3H]CQ transport, cis-inhibition (% PfCRTEcu1110 control)” value was 59 ± 2.1 % PfCRTEcu1110 control at PfCRT^Ecu1110 [3] ([test solute] = 0.5 mM), 41 ± 1.4 % PfCRTEcu1110 control at PfCRT^Ecu1110 [3] ([test solute] = 1 mM) and 28 ± 0.5 % PfCRTEcu1110 control on PfCRT^Ecu1110 [3] ([test solute] = 2 mM). Also, the “[3H]CQ transport (% PfCRTEcu1110 control), cis-inhibition, PfCRTEcu1110” value is given as 19 ± 0.3 % PfCRTEcu1110 control on PfCRT^Ecu1110 [3] ([test solute] = 0.5 mM), 13 ± 0.5 % PfCRTEcu1110 control at PfCRT^Ecu1110 [3] ([test solute] = 1 mM) and 9.0 ± 0.05 % PfCRTEcu1110 control on PfCRT^Ecu1110 [3] ([test solute] = 2 mM). In addition, the “PfCRT-mediated [3H]CQ transport, cis-inhibition (% PfCRTDd2 control)” value is given as 39 ± 1.1 % PfCRTDd2 control on PfCRT^Dd2 [4] ([test solute] = 0.5 mM), 31 ± 3.1 % PfCRTDd2 control on PfCRT^Dd2 [4] ([test solute] = 1 mM) and 19 ± 1.2 % PfCRTDd2 control at PfCRT^Dd2 [4] ([test solute] = 2 mM).

Values taken from publication PMC7413254 (Nature Communications, 2020).
